Target: T1, G1 APOL1 (Homo sapiens, UniProt O14791, I384M/S342G)
T1 construct: expressed in transfected cells
T1 sequence (O14791 28-398 S342G/I384M): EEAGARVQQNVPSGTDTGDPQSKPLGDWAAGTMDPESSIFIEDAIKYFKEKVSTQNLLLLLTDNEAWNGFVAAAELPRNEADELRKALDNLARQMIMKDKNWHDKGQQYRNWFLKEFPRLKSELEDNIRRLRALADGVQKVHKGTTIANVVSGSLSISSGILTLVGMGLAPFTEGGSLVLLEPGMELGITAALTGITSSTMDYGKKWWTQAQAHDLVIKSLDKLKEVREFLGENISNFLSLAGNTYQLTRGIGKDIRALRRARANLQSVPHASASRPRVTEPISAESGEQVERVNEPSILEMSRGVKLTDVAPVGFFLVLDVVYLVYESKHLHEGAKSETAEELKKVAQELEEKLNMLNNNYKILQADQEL
Experiment: Acute APOL1 Thallium Assay with Inducible Stable Clones of HEK 293 Cells
Assay type: cell-based
Conditions: HEK 293 inducible stable clones, G1 APOL1; read-out: Thallium Assay (IC50)
Source text: Acute APOL1 Thallium Assay with Inducible Stable Clones of HEK 293 Cells
Apolipoprotein L1 (APOL1) proteins form potassium-permeable cation pores in the plasma membrane. APOL1 risk variants (G1 and G2) induce greater potassium flux than G0 in HEK293 cells. This assay exploits the permeability of thallium (Tl+) through ligand-gated potassium channels. The dye produces a bright fluorescent signal upon binding to Tl+ conducted through potassium channels. The intensity of the Tl+ signal is proportional to the number of potassium channels in the open state. Therefore, it provides a functional indication of the potassium channel activities. During the initial dye-loading step, the Tl+ indicator dye as an acetoxymethyl (AM) ester enters the cells through passive diffusion. Cytoplasm esterases cleave the AM ester and relieve its active thallium-sensitive form. The cells are then stimulated with Tl+. The increase of fluorescence in the assay represents the influx of Tl+ into the cell specifically through the potassium channel (i.e. through APOL1 pores), providing a functional measurement of potassium channel/pore activity. The Thallium assay is conducted with cells expressing G1 APOL1.
APOL1 Cell Line (HEK T-Rex Stable Inducible Cell Line) • HEK T-Rex System • Tetracycline (Tet) inducible mammalian expression system. • Stably express the Tet repressor to regulate transcription. • Expression under the full-length CMV promoter. • APOL1 stable inducible cell line Clone used: G1 DC3.25
Tissue Culture Media • Cell Culture Medium • DMEM+10% FBS+P/S+5 μg/mL blasticidin+1 μg/mL puromycin. • 500 mL DMEM+55 mL FBS+5 mL P/S+280 μL blasticidin S HCl (10 mg/mL)+56 μL puromycin (10 mg/mL). • Cell Assay Medium • DMEM with 2% FBS+penicillin/streptomycin.
Instruments and Equipment • Nuaire cell culture hood, Cat. No. 540-600 • 37° C./5% CO2 incubator link to robotic arm, Liconic: STX110 • Molecular Devices FLIPR^Tetra High throughput cellular screening system, Cat. No. FT0324, Molecular Devices • ThermoFisher MultiDrop 384, Cat. No. 5840300 • Biotek Microfill, Cat. No. ASF1000A-4145 • BioRad TC10 cell counter, Cat. No. 145-0010
Cells Scaled Up from Frozen Vials • APOL1 G1 3.25 (HEK293 T-Rex) frozen vials: 5 million cells per vial • Step 1, Day 1: Defrost frozen vial into T-225. • Step 2, Day 5: (when 85% confluent): Split one T-225 at 3×10^6 cells per flask. • Step 3, Day 8: Splits cells to set up for the assay plates as described below.
T-Rex APOL1 HEK cells are split twice per week to keep the confluence state below 85% of the culture flask surface area. Cells can be kept until passage 25. • Cell Culture Medium • DMEM high glucose+10% FBS, +P/S, +5 μg/mL blasticidin, +1 μg/mL puromycin. • 500 mL DMEM, +55 mL FBS, +5 mL P/S, +280 μL blasticidin 10 mg/mL, +56 μL Puromycin 10 mg/mL. • Assay Media • Opti-MEM reduced serum medium from Invitrogen.
Preparation of Cell Assay Plates • Culture medium is removed from the x cm^2 T-flask by aspiration. • The cell monolayer is rinsed with PBS 1× at room temperature. PBS is removed by aspiration. • Cells are trypsinized using Trypsin. • The flasks are incubated at room temperature for 2-3 minutes. • Complete DMEM medium is then added. Cell suspension is then transferred to a 50 mL Falcon polypropylene tube. • Cells are then counted using a BioRad TC10 cell counter and the required amount of cells are centrifuged at 1200 RPM for 5 minutes. Required amount is 1.3×10^6 cells/mL APOL1 T-Rex HEK cells. • The pellet is suspended in the assay medium. • Using the MultiDrop, add 20 μL to each well (corresponds to 26000 cells total per well) of a 384-well black, transparent, flat bottom Poly-D coated plate. • Tetracycline as prepared in the following section is added to the cells before plating to induce APOL1 expression. • Plates are left at room temperature for 20 to 30 minutes before incubation at 37° C. and 5% CO2. […]

Row | SMILES | IC50 [µM]
1 | O=C(N[C@H]1CCOC1)OCCc1c(-c2ccc(F)cc2)[nH]c2c(F)cc(F)cc12 [Compound 469] | 0.25 to 1
2 | CN1CC(NC(=O)NCCc2c(-c3ccc(F)cc3)[nH]c3c(F)cc(F)cc23)CC1=O (centres unmarked) [Compound 294] | > 1
3 | NCCc1c(-c2ccc(F)cc2)[nH]c2c(F)cc(F)cc12 [Compound 432, 2-[5,7-difluoro-2-(4-fluorophenyl)-1H-indol-3-yl]ethanamine] | > 1
4 | O=C(NCCc1c(-c2ccc(F)cc2)[nH]c2c(F)cc(F)cc12)N[C@H](CO)C(F)(F)F [Compound 262] | < 0.25
5 | O=C(CC1CC(=O)NC(=O)C1)NCCc1c(-c2ccc(F)cc2)[nH]c2c(F)cc(F)cc12 [Compound 318] | > 1
6 | CN(CCO)C(=O)NCCc1c(-c2ccc(F)cc2)[nH]c2c(F)cc(F)cc12 [Compound 302] | > 1
7 | C[C@H](CO)NC(=O)NCCc1c(-c2ccc(F)cc2)[nH]c2c(F)cc(F)cc12 [Compound 282] | 0.25 to 1
8 | O=C(NCCc1c(-c2ccc(F)cc2)[nH]c2c(F)cc(F)cc12)NCc1cccc(O)c1 [Compound 264] | > 1
9 | CNCCc1c(-c2ccc(F)cc2)[nH]c2c(F)cc(F)cc12 [Compound 428, 2-[5,7-difluoro-2-(4-fluorophenyl)-1H-indol-3-yl]-N-methyl-ethanamine] | > 1
10 | O=C(/C=C/c1c(-c2ccc(F)cc2)[nH]c2c(F)ccc(F)c12)N[C@H]1CCNC1=O [Compound 520, (E)-3-[4,7-difluoro-2-(4-fluorophenyl)-1H-indol-3-yl]-N-[(3S)-2-oxopyrrolidin-3-yl]prop-2-enamide] | > 1
11 | CC(CC(N)=O)N(C)C(=O)NCCc1c(-c2ccc(F)cc2)[nH]c2c(F)cc(F)cc12 (racemic) [Compound 290] | > 1
12 | O=C(NCCc1c(-c2ccc(F)cc2)[nH]c2c(F)cc(F)cc12)C1(F)CCC1 [Compound 406] | 0.25 to 1
13 | C[C@H](O)CC(=O)NCCc1c(-c2ccc(F)cc2)[nH]c2c(F)cc(F)cc12 [Compound 356] | > 1
14 | OC1(CC#Cc2c(-c3ccc(F)cc3)[nH]c3c(F)cc(F)cc23)CCC1 [Compound 525, 1-[3-[5,7-difluoro-2-(4-fluorophenyl)-1H-indol-3-yl]prop-2-ynyl]cyclobutanol] | > 1
15 | O=C1CC(C(=O)NCCc2c(-c3ccc(F)cc3)[nH]c3c(F)cc(F)cc23)NC(=O)N1 (centres unmarked) [Compound 309] | > 1
16 | O=C(NCCc1c(-c2ccc(F)cc2)[nH]c2c(F)cc(F)cc12)N1CCC[C@H]1CO [Compound 296] | > 1
17 | CC1(CNC(=O)NCCc2c(-c3ccc(F)cc3)[nH]c3c(F)cc(F)cc23)COC1 [Compound 298] | > 1
18 | CC(C)(O)CCNC(=O)NCCc1c(-c2ccc(F)cc2)[nH]c2c(F)cc(F)cc12 [Compound 270] | > 1
19 | Cc1cc(F)c2[nH]c(-c3ccc(F)cc3)c(CCC(=O)NCCO)c2c1 [Compound 218] | > 1
20 | O=C(Nc1cc(=O)[nH][nH]1)OCCc1c(-c2ccc(F)cc2)[nH]c2c(F)cc(F)cc12 [Compound 488] | > 1
21 | O=C(NCCc1c(-c2ccc(F)cc2)[nH]c2c(F)cc(F)cc12)c1cnc(C(F)(F)F)s1 [Compound 367] | > 1
22 | Cn1nccc1C(=O)NCCc1c(-c2ccc(F)cc2)[nH]c2c(F)cc(F)cc12 [Compound 392] | 0.25 to 1
23 | CC(C)(C)OC(=O)NC1(C(=O)NCCc2c(-c3ccc(F)cc3)[nH]c3c(F)cc(F)cc23)CCC1 [Compound 311] | > 1
24 | NC1(C(=O)NCCc2c(-c3ccc(F)cc3)[nH]c3c(F)cc(F)cc23)CCC1 [Compound 349] | 0.25 to 1

Row | SMILES | IC50 [µM]
25 | C[C@@H](CO)NC(=O)CCCc1c(-c2ccc(F)cc2)[nH]c2c(F)cc(F)cc12 [Compound 240] | 0.25 to 1
26 | O=C(CCCc1c(-c2ccc(F)cc2)[nH]c2c(F)cc(F)cc12)N[C@@H]1CCNC1=O [Compound 247] | > 1
27 | O=S(=O)(CCO)NCCc1c(-c2ccc(F)cc2)[nH]c2c(F)cc(F)cc12 [Compound 422] | > 1
28 | NC(=O)CC(=O)NCCc1c(-c2ccc(F)cc2)[nH]c2c(F)cc(F)cc12 [Compound 358] | > 1
29 | CS(=O)(=O)NCC(=O)NCCc1c(-c2ccc(F)cc2)[nH]c2c(F)cc(F)cc12 [Compound 321] | > 1
30 | O=C1N[C@H](C(=O)NCCc2c(-c3ccc(F)cc3)[nH]c3c(F)cc(F)cc23)CO1 [Compound 336] | > 1
31 | Cc1cc(F)c2[nH]c(-c3ccc(F)cc3)c(CCC(=O)N[C@H](CO)C(F)(F)F)c2c1 [Compound 224] | > 1
32 | O=C(CO)NCCc1c(-c2ccc(F)cc2)[nH]c2c(F)cc(F)cc12 [Compound 365] | > 1
33 | O=C(NC1CCOC1)OCCc1c(-c2ccc(F)cc2)[nH]c2c(F)cc(F)cc12 (centres unmarked) [Compound 463] | 0.25 to 1
34 | O=C(NCCc1c(-c2ccc(F)cc2)[nH]c2c(F)cc(F)cc12)C(O)CO (centres unmarked) [Compound 310] | 0.25 to 1
35 | O=C(NCCc1c(-c2ccc(F)cc2)[nH]c2c(F)cc(F)cc12)NCC1CCOCC1 [Compound 291] | > 1
36 | N#CC(NC(=O)CCc1c(-c2ccc(F)cc2)[nH]c2c(F)cc(F)cc12)C(N)=O (centres unmarked) [Compound 127] | 0.25 to 1
37 | CN(C[C@H](O)CO)C(=O)OCCc1c(-c2ccc(F)cc2)[nH]c2c(F)cc(F)cc12 [Compound 482] | > 1
38 | NC(=O)[C@@H](CO)NC(=O)CCc1c(-c2ccc(F)cc2)[nH]c2c(F)cc(Cl)cc12 [Compound 202] | > 1
39 | O=C1N[C@H](C(=O)NCCc2c(-c3ccc(F)cc3)[nH]c3c(F)cc(F)cc23)CCO1 [Compound 323] | > 1
40 | CC(NC(=O)OCCc1c(-c2ccc(F)cc2)[nH]c2c(F)cc(F)cc12)C(N)=O (racemic) [Compound 460] | 0.25 to 1
41 | C[C@H](N)C(=O)NCCc1c(-c2ccc(F)cc2)[nH]c2c(F)cc(F)cc12 [Compound 363] | > 1
42 | O=C(CCc1c(-c2ccccc2)[nH]c2ccc(F)cc12)N[C@@H](CO)C(F)F [Compound 235, N-[(1S)-2,2-difluoro-1-(hydroxymethyl)ethyl]-3-(5-fluoro-2-phenyl-1H-indol-3-yl)propanamide] | < 0.25
43 | O=C(NCCc1c(-c2ccc(F)cc2)[nH]c2c(F)cc(F)cc12)c1ccnnc1 [Compound 399] | > 1
44 | O=C(NC1(CO)CCC1)OCCc1c(-c2ccc(F)cc2)[nH]c2c(F)cc(F)cc12 [Compound 436] | < 0.25
45 | O=C(NCCc1c(-c2ccc(F)cc2)[nH]c2c(F)cc(F)cc12)NCC(O)C(F)F (centres unmarked) [Compound 267] | > 1
46 | O=C(CCCc1c(-c2ccc(F)cc2)[nH]c2c(F)cc(F)cc12)N1C[C@@H](O)[C@H](O)C1 [Compound 248] | > 1
47 | O=C(CCc1c(-c2ccc(F)cc2)[nH]c2c(F)cc(Cl)cc12)NC(CO)(CO)CO [Compound 195] | 0.25 to 1
